The target in assay [1] is T1, human glucocorticoid receptor-α [GRX] isoform (Homo sapiens, UniProt P04150).
T1 construct: host or cells: insect SF21 cells (baculovirus)
T1 sequence (P04150 1-777): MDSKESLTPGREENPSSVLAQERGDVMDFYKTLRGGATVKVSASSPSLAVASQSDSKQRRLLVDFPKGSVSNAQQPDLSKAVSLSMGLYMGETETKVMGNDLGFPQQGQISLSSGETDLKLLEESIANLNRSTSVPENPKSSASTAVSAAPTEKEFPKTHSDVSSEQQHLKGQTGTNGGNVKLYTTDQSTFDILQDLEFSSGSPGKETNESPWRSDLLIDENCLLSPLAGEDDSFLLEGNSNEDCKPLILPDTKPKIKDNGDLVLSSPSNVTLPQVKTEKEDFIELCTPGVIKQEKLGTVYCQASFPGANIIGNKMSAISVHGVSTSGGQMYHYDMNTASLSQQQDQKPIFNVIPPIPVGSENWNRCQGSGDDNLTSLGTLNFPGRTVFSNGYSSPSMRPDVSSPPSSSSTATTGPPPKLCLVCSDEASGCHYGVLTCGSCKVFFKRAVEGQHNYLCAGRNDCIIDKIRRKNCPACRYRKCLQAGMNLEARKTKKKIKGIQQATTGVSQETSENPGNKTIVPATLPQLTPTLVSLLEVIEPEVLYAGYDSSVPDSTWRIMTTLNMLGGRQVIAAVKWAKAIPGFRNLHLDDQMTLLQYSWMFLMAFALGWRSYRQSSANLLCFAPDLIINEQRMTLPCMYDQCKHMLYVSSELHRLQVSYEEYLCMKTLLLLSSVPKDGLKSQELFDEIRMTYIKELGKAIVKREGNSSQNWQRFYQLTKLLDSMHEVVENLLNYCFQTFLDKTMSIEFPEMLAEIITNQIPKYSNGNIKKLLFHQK
Description: Radioligand binding with human glucocorticoid receptor cytosol ([3H]-dexamethasone competition).
Description: Briefly, cytosol preparations of human glucocorticoid receptor-α [GRX] isoform and human progesterone receptor-A [PRA] isoform were obtained from Ligand Pharmaceuticals (San Diego, Calif.). Both receptor cDNAs were cloned into baculovirus expression vectors and expressed in insect SF21 cells. [^3H]-dexamethasone (Dex, specific activity 82-86 Ci/mmole) and [^3H]-progesterone (Prog, specific activity 97-102 Ci/mmol) were purchased from Amersham Life Sciences (Arlington Heights, Ill.). Glass fiber type C multiscreen MAFC NOB plates were from Millipore (Burlington, Mass.). Hydroxyapatide Bio-Gel HTP gel was from Bio-Rad Laboratories (Hercules, Calif.). Tris(hydroxymethyl)aminomethane (Tris), ethylenediaminetetraacetic acid (EDTA), glycerol, dithiothreitol (DTT) and sodium moylybdate were obtained from Sigma Chemicals (St. Louis, Mo.). Microscint-20 scintillation fluid was from Packard Instrument (Meriden, Conn.).
(§1) Stock solutions (32 mM) of compounds were prepared in dimethylsulfoxide (DMSO), and 50× solutions of test compounds were prepared from the 32 mM solution with a 50:50 mixture of DMSO/ethanol. The 50× solution was then diluted with binding buffer that contained 10 mM Tri-HCl, 1.5 mM EDTA, 10% glycerol, 1 mM DTT, 20 mM sodium molybdate, pH 7.5 @4° C. 1% DMSO/ethanol was present in the binding assay.
For GR binding assays, [^3H]-Dex (˜35,000 dpm (˜0.9 nM)), GRX cytosol (˜35 μg protein), test compounds and binding buffer were mixed in a total volume of 200 μL and incubated at 4° C. overnight in a plate shaker. Specific binding was defined as the difference between binding of [^3H]Dex in the absence and in the presence of 1 μM unlabelled Dex.
(§2) After an overnight incubation, 50 μL of hydroxyapatite (25% weight/volume) slurry were added to each well and plates were incubated for 10 min at 0° C. in a plate shaker. Plates were suctioned with a Millipore vacuum manifold and each well was rinsed with 300 μL of ice-cold binding buffer. A 250 μL aliquot of Packard Microscint-20 was added to each well and the wells were shaken at room temperature for 20 minutes. The amount of radioactivity was determined with a Packard TopCount plate reader.
(§3) The Ki of test compounds was determined using the Cheng-Prusoff equation Ki=IC50/(1+[L*]/[KL]) where L* is the concentration of radioligand and KL is the dissociation constant of the radioligand determined from saturation analysis.

For assay [2], the target named is T2, human progesterone receptor-A [PRA] isoform (Homo sapiens, UniProt P06401).
T2 construct: host or cells: insect SF21 cells (baculovirus)
T2 sequence (P06401 1-769 isoform P06401-2): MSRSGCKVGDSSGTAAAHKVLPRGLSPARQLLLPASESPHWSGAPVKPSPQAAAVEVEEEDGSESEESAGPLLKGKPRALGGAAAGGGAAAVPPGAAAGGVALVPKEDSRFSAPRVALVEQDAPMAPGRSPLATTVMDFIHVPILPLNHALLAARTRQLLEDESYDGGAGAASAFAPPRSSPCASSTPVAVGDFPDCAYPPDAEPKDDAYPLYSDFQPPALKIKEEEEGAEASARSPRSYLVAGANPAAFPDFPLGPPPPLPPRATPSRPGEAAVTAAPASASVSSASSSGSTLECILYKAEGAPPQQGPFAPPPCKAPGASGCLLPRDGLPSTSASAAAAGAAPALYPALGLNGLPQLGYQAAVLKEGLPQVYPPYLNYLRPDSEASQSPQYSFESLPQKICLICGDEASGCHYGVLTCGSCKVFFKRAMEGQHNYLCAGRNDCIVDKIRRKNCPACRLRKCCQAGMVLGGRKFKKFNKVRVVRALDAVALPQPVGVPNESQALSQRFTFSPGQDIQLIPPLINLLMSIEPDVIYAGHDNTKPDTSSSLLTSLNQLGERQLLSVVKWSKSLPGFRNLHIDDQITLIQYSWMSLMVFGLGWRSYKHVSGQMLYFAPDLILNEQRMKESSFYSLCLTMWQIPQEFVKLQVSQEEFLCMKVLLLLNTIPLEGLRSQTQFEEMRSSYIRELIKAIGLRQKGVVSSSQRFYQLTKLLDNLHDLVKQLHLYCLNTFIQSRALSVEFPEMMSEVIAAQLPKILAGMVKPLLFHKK
Description: Radioligand binding with human progesterone receptor cytosol ([3H]-progesterone competition). To be noted: PRA cytosol expressed in insect SF21 cells, [3H]Prog ~0.8 nM, 4° C. overnight; Ki by Cheng-Prusoff, KL ~4.5 nM; read-out: Ki (nM) PR.
Description: Both receptor cDNAs were cloned into baculovirus expression vectors and expressed in insect SF21 cells.
as §1
For PR binding assays, [^3H]Prog (˜36,000 dpm (˜0.8 nM)), PRA cytosol (˜40 μg protein), test compounds and binding buffer were mixed in a total volume of 200 μL and incubated at 4° C at overnight in a plate shaker. Specific binding was defined as the difference between binding of [^3H]Prog in the absence and in the presence of 3 μM unlabelled Prog.
as §2, §3

The mark [3] stands for this setting: GRX cytosol expressed in insect SF21 cells, [3H]-Dex ~0.9 nM, 4° C. overnight, Ki by Cheng-Prusoff, KL ~[…], read-out: Ki (nM) GR.

Like-named read-outs stand apart in the source and are kept apart here.

What is called Ki is the dissociation constant of the complex between target and ligand, obtained from inhibition or displacement. As to `COc1c(Br)cc(Br)c2c1-c1ccc3c(c1C(C1C=CCCC1)O2)C(C)=CC(C)(C)N3` (stereo not shown) [Example 302, 7,9-Dibromo-5-[cyclohexen-3-yl]-10-methoxy-2,2,4-trimethyl-2,5-dihydro-1H-[1]benzopyrano[3,4-f]quinoline], the values for the inhibition constant Ki in assay [1] (setting [3]) and in assay [2] were 5.9 nM and 99 nM, respectively.

Take `COc1c(Br)cc(Br)c2c1-c1ccc3c(c1C(C1C=C(C)CCC1)O2)C(C)=CC(C)(C)N3` (stereo not shown) [Example 303]: the inhibitory constant (Ki) amounted to 4.9 nM in assay [1] (setting [3]) and 58.5 nM in assay [2].

For `C=CCC1Oc2c(C=C)ccc(OC)c2-c2ccc3c(c21)C(C)=CC(C)(C)N3` (stereo not shown) [Example 304, 10-Methoxy-7-(2-ethenyl)-5-(3-propenyl)-2,2,4-trimethyl-1H-2,5-dihydro-[1]benzopyrano[3,4-f]quinoline], the Ki in assay [1] (setting [3]) stood at 34.5 nM; in assay [2] it was 681 nM.

Take `C=CCC1Oc2c(C)ccc(OC)c2-c2ccc3c(c21)C(C)=CC(C)(C)N3` (stereo not shown) [Example 305, 10-Methoxy-7-methyl-5-(3-propenyl)-2,2,4-trimethyl-1H-2,5-dihydro-[1]benzopyrano[3,4-f]quinoline]: the inhibition constant Ki in assay [1] (setting [3]) is 2 nM; in assay [2], 6920 nM.

In the case of `C=CCC1Oc2c(C(C)=O)ccc(OC)c2-c2ccc3c(c21)C(C)=CC(C)(C)N3` (stereo not shown) [Example 306, 10-Methoxy-7-acetyl-5-(3-propenyl)-2,2,4-trimethyl-1H-2,5-dihydro-[1]benzopyrano[3,4-f]quinoline], the Ki in assay [1] (setting [3]) stood at 717 nM; in assay [2], 4460 nM.

Turning to `C=CCC1Oc2c(C)cc(C)c(OC)c2-c2ccc3c(c21)C(C)=CC(C)(C)N3` (stereo not shown) [Example 308, 10-Methoxy-7-methyl-9-methyl-5-(3-propenyl)-2,2,4-trimethyl-1H-2,5-dihydro-[1]benzopyrano[3,4-f]quinoline], the inhibitory constant (Ki) in assay [1] (setting [3]) was found to be 50.8 nM; in assay [2] it was 960 nM.

Turning to `COc1cccc2c1-c1ccc3c(c1C(c1cccc(CCO)c1)O2)C(C)=CC(C)(C)N3` (stereo not shown) [Example 314, 2,5-Dihydro-10-methoxy-5-(3-(2-hydroxyethyl)phenyl)-2,2,4-trimethyl-1H-[1]benzopyrano[3,4-f]quinoline], the inhibitory constant (Ki) is 1.7 nM in assay [1] (setting [3]) and not below 10000 nM in assay [2].

Regarding `COc1cccc2c1-c1ccc3c(c1C(c1cccc(CCOS(C)(=O)=O)c1)O2)C(C)=CC(C)(C)N3` (stereo not shown) [Example 315, 2,5-Dihydro-10-methoxy-5-(3-(2-methanesulfonyloxyethyl)phenyl)-2,2,4-trimethyl-1H-[1]benzopyrano[3,4-f]quinoline], the results for the Ki in assay [1] (setting [3]) and in assay [2] were 13 nM and not below 10000 nM, respectively.

Take `COc1cccc2c1-c1ccc3c(c1C(c1cccc(CCSC)c1)O2)C(C)=CC(C)(C)N3` (stereo not shown) [Example 316, 2,5-Dihydro-10-methoxy-5-(3-(2-methythioethyl)phenyl)-2,2,4-trimethyl-1H-[1]benzopyrano[3,4-f]quinoline]: the Ki in assay [1] (setting [3]) was 11 nM; in assay [2], not below 10000 nM.

Consider `COc1cccc2c1-c1ccc3c(c1C(c1cccc(CCOC(=O)N(C)C)c1)O2)C(C)=CC(C)(C)N3` (stereo not shown) [Example 317, 2,5-Dihydro-10-methoxy-5-(3-(2-(N,N-dimethylaminocarbonyloxy)ethyl)phenyl)-2,2,4-trimethyl-1H-[1]benzopyrano[3,4-f]quinoline], for which the inhibitory constant (Ki) in assay [1] (setting [3]) is 6.5 nM; in assay [2], not below 10000 nM.

`COc1cccc2c1-c1ccc3c(c1C(c1cccc(CCN(C)C)c1)O2)C(C)=CC(C)(C)N3` (stereo not shown) [Example 318, 2,5-Dihydro-10-methoxy-5-(3-(2-(N,N-dimethylamino)ethyl)phenyl)-2,2,4-trimethyl-1H-[1]benzopyrano[3,4-f]quinoline]: the inhibitory constant (Ki) was 553 nM in assay [1] (setting [3]) and not below 10000 nM in assay [2].

For `COc1cccc2c1-c1ccc3c(c1C(C1CC1)O2)C(C)=CC(C)(C)N3` (stereo not shown) [Example 319, 2,5-Dihydro-10-methoxy-5-cyclopropyl-2,2,4-trimethyl-1H-[1]benzopyrano[3,4-f]quinoline], the Ki is 16 nM in assay [1] (setting [3]) and 492 nM in assay [2].

On to `COc1cccc2c1-c1ccc3c(c1C(/C=C/c1ccccc1)O2)C(C)=CC(C)(C)N3` (stereo not drawn) [Example 321, trans 2,5-Dihydro-10-methoxy-5-(2-phenylethenyl)-2,2,4-trimethyl-1H-[1]benzopyrano[3,4-f]quinoline], for which the Ki in assay [1] (setting [3]) turned out to be 44 nM; in assay [2], 2880 nM.

`COc1cccc2c1-c1ccc3c(c1C(C#Cc1ccccc1)O2)C(C)=CC(C)(C)N3` (stereo not shown) [Example 322, 2,5-Dihydro-10-methoxy-5-(2-phenylethynyl)-2,2,4-trimethyl-1H-[1]benzopyrano[3,4-f]quinoline]: the values for the inhibitory constant (Ki) in assay [1] (setting [3]) and in assay [2] were 107 nM and 2300 nM, respectively.

As to `COc1cccc2c1-c1ccc3c(c1C(/C=C\c1ccccc1)O2)C(C)=CC(C)(C)N3` (stereo not drawn) [Example 323, cis 2,5-Dihydro-10-methoxy-5-(2-phenylethenyl)-2,2,4-trimethyl-1H-[1]benzopyrano[3,4-f]quinoline], the results for the inhibitory constant (Ki) in assay [1] (setting [3]) and in assay [2] were 428 nM and not below 10000 nM, respectively.

Regarding `COc1cccc2c1-c1ccc3c(c1C(C1=CCCCC1)O2)C(C)=CC(C)(C)N3` (stereo not drawn) [Example 325, trans 2,5-Dihydro-10-methoxy-5-(1-cyclohexenyl)-2,2,4-trimethyl-1H-[1]benzopyrano[3,4-f]quinoline], the Ki in assay [1] (Ki (nM) GR) is 24 nM; in assay [2] it was not below 10000 nM.

Take `C=CCC1Oc2cccc(-c3ccco3)c2-c2ccc3c(c21)C(C)=CC(C)(C)N3` (stereo not shown) [Example 326, 2,5-Dihydro-10-(2-furanyl)-5-(3-propenyl)-2,2,4-trimethyl-1H-[1]benzopyrano[3,4-f]quinoline]: the Ki is 228 nM in assay [1] (setting [3]) and not below 10000 nM in assay [2].

`C=CCC1Oc2cccc(C#N)c2-c2ccc3c(c21)C(C)=CC(C)(C)N3` (stereo not shown) [Example 327, 2,5-Dihydro-10-cyano-5-(3-propenyl)-2,2,4-trimethyl-1H-[1]benzopyrano[3,4-f]quinoline]: the Ki in assay [1] (setting [3]) amounted to 9.3 nM; in assay [2], 1460 nM.

Consider `C=CCC1Oc2cccc(CN)c2-c2ccc3c(c21)C(C)=CC(C)(C)N3` (stereo not shown) [Example 331, 2,5-Dihydro-10-aminomethyl-5-(3-propenyl)-2,2,4-trimethyl-1H-[1]benzopyrano[3,4-f]quinolione], for which the values for the Ki in assay [1] (setting [3]) and in assay [2] were 142 nM and not below 10000 nM, respectively.

Turning to `C=CCC1Oc2cccc(COC)c2-c2ccc3c(c21)C(C)=CC(C)(C)N3` (stereo not shown) [Example 332, 2,5-Dihydro-10-methoxymethyl-5-(3-propenyl)-2,2,4-trimethyl-1H-[1]benzopyrano[3,4-f]quinoline], the inhibition constant (Ki) in assay [1] (setting [3]) is 18 nM; in assay [2], not below 10000 nM.

For `C=Cc1cccc2c1-c1ccc3c(c1C(c1ccccc1)O2)C(C)=CC(C)(C)N3` (stereo not shown) [Example 333, 2,5-Dihydro-10-ethenyl-5-phenyl-2,2,4-trimethyl-1H-[1]benzopyrano[3,4-f]quinoline], the Ki came out at 5.6 nM in assay [1] (setting [3]) and 3670 nM in assay [2].

Consider `C#Cc1cccc2c1-c1ccc3c(c1C(c1ccccc1)O2)C(C)=CC(C)(C)N3` (stereo not shown) [Example 334, 2,5-Dihydro-10-ethynyl-5-phenyl-2,2,4-trimethyl-1H-[1]benzopyrano[3,4-f]quinoline], for which the results for the Ki in assay [1] (setting [3]) and in assay [2] were 9.5 nM and not below 10000 nM, respectively.

Regarding `CC1=CC(C)(C)Nc2ccc3c(c21)C(c1ccccc1)Oc1cccc(CO)c1-3` (stereo not shown) [Example 336, 2,5-Dihydro-10-(hydroxymethyl)-5-phenyl-2,2,4-trimethyl-1H-[1]benzopyrano[3,4-f]quinoline], the Ki was 9.5 nM in assay [1] (setting [3]) and 1560 nM in assay [2].

These data come from patent US6506766B1 (Abbott Laboratories, priority 1998, dated 2003).
